Test results taken from ChEMBL document CHEMBL3526141, “Characterization of human liver enzymes involved in the biotransformation of boceprevir, a hepatitis C virus protease inhibitor” (Drug Metab Dispos, 2011).

Assays:
[1] = test system: Liver microsome; experiment: Drug metabolism in human liver microsomes treated with 5 uM [14C]boceprevir assessed as compound formation by LC-MS/FSA method relative to total [14C]boceprevir; format: ADME
[2] = test system: Liver cytosol; experiment: Drug metabolism in human liver cytosol at 20 uM assessed as (1R,2S,5S)-N-((2R,3R)-4-amino-1-cyclobutyl-3-hydroxy-4-oxobutan-2-yl)-3-((S)-2-(3-tert-butylureido)-3,3-dimethylbutanoyl)-6,6-dimethyl-3-azabicyclo[3.1.0]hexane-2-carboxamide formation in presence of flufenamic acid by LC-MS/MS/FSA method; format: ADME
[3] = (§1) Drug metabolism in human liver S9 fraction at 20 uM assessed as (1R,2S,5S)-N-((2S,3R)-4-amino-1-cyclobutyl-3-hydroxy-4-oxobutan-2-yl)-3-((S)-2-(3-tert-butylureido)-3,3-dimethylbutanoyl)-6,6-dimethyl-3-azabicyclo[3.1.0]hexane-2-carboxamide formation in presence of quercetin by LC-MS/MS/FSA method; format: ADME, subcellular; details: s9, 20 µM
[4] = target: T1, Aldo-keto reductase family 1 member C4 (Homo sapiens, UniProt P17516); experiment: Activity of human recombinant AKR1C4 expressed in HEK293 cells assessed as (1R,2S,5S)-N-((2S,3R)-4-amino-1-cyclobutyl-3-hydroxy-4-oxobutan-2-yl)-3-((S)-2-(3-tert-butylureido)-3,3-dimethylbutanoyl)-6,6-dimethyl-3-azabicyclo[3.1.0]hexane-2-carboxamide formation per mg protein after 120 mins in presence of NADPH by LC-MS/MS/FSA method; format: ADME, cell-based; details: hek293, 2 h
T1 sequence (P17516 whole entry): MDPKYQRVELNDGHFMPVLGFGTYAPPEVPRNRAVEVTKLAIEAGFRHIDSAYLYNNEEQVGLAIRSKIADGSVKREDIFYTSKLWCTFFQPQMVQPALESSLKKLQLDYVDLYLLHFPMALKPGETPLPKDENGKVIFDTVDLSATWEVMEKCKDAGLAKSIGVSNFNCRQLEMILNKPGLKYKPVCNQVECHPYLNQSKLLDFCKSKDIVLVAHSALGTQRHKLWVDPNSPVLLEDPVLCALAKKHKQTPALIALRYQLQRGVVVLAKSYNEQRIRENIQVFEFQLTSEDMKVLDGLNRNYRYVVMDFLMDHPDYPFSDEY

[5] = test system: Liver cytosol; experiment: (§2) Drug metabolism in human liver cytosol at 20 uM assessed as (1R,2S,5S)-N-((2S,3R)-4-amino-1-cyclobutyl-3-hydroxy-4-oxobutan-2-yl)-3-((S)-2-(3-tert-butylureido)-3,3-dimethylbutanoyl)-6,6-dimethyl-3-azabicyclo[3.1.0]hexane-2-carboxamide formation at 20 uM after 60 mins in presence of AKR inhibitor diazepam by LC-MS/MS/FSA method; format: ADME; details: 1 h
[6] = Drug metabolism in human liver S9 fraction at 20 uM assessed as (1R,2S,5S)-N-((2S,3R)-4-amino-1-cyclobutyl-3-hydroxy-4-oxobutan-2-yl)-3-((S)-2-(3-tert-butylureido)-3,3-dimethylbutanoyl)-6,6-dimethyl-3-azabicyclo[3.1.0]hexane-2-carboxamide formation in presence of menadione by LC-MS/MS/FSA method; format: ADME, subcellular; details: s9, 20 µM
[7] = test system: Liver cytosol; experiment: Drug metabolism in human liver cytosol at 20 uM assessed as (1R,2S,5S)-N-((2S,3R)-4-amino-1-cyclobutyl-3-hydroxy-4-oxobutan-2-yl)-3-((S)-2-(3-tert-butylureido)-3,3-dimethylbutanoyl)-6,6-dimethyl-3-azabicyclo[3.1.0]hexane-2-carboxamide formation in presence of flufenamic acid by LC-MS/MS/FSA method; format: ADME
[8] = test system: Liver cytosol; experiment: as §2, with “ibuprofen” for “diazepam”; format: ADME; details: 1 h
[9] = target: T2, Cytochrome P450 4F12 (Homo sapiens, UniProt Q9HCS2); experiment: Drug metabolism assessed as human CYP4F12-mediated compound formation from 5 to 20 uM [14C]boceprevir after 120 mins by LC-MS/FSA method relative to total [14C]boceprevir; format: ADME; details: recombinant enzyme, 2 h
T2 sequence (Q9HCS2 whole entry): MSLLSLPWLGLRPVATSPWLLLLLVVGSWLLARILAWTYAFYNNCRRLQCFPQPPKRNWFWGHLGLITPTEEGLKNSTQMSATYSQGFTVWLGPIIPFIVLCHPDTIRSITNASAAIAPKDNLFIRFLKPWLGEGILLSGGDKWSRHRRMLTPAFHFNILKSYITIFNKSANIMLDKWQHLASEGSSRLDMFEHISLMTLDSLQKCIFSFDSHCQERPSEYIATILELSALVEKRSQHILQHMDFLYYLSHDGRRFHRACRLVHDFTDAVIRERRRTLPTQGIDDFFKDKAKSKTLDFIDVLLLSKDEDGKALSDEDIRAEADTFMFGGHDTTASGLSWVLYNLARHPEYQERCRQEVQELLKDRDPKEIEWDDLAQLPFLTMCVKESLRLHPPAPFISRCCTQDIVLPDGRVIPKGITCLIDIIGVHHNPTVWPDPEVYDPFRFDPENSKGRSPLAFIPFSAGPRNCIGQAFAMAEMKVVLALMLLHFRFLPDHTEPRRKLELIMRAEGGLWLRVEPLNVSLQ

[10] = test system: Liver cytosol; experiment: as §2; format: ADME; details: 1 h; remark: listed apart in the source
[11] = as §1, with “flufenamic acid” for “quercetin”; format: ADME, subcellular; details: s9, 20 µM
[12] = target: T3, Aldo-keto reductase family 1 member C3 (Homo sapiens, UniProt P42330); experiment: Activity of human recombinant AKR1C3 expressed in HEK293 cells assessed as ratio of Vmax to Km for (1R,2S,5S)-N-((2S,3R)-4-amino-1-cyclobutyl-3-hydroxy-4-oxobutan-2-yl)-3-((S)-2-(3-tert-butylureido)-3,3-dimethylbutanoyl)-6,6-dimethyl-3-azabicyclo[3.1.0]hexane-2-carboxamide formation per mg protein after 120 mins in presence of NADPH by LC-MS/MS/FSA method; format: ADME, cell-based; details: hek293, 2 h
T3 sequence (P42330 whole entry): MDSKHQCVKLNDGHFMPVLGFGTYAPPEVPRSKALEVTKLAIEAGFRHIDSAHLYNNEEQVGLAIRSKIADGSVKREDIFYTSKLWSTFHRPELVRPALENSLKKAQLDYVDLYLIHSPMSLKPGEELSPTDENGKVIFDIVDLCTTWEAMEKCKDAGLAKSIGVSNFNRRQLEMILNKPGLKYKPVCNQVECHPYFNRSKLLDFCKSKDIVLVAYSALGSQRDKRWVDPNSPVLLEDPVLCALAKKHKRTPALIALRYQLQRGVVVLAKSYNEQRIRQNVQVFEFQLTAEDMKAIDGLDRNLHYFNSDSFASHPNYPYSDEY

[13] = target: T4, Aldo-keto reductase family 1 member C2 (Homo sapiens, UniProt P52895); experiment: Drug metabolism in human recombinant AKR1C2 expressing HEK293 cells treated with 20 uM boceprevir assessed as 1 mM BNPP-mediated inhibition of AKR1C2-mediated metabolite formation after 120 mins in presence of NADPH by LC-MS/MS/FSA method; format: ADME, cell-based; parameters: interact cpd dose 1 mM; details: hek293, 2 h
T4 sequence (P52895 whole entry): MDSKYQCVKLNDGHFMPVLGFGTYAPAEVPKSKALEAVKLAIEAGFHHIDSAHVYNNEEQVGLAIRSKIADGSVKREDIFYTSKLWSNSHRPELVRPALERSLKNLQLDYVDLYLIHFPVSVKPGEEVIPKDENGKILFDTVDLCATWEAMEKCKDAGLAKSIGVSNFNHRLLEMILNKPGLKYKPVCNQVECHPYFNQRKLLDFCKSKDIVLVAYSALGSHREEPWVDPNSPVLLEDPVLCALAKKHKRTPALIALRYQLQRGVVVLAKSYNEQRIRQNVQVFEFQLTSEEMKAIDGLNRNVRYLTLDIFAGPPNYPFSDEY

SMILES: CC(C)(C)NC(=O)N[C@H](C(=O)N1C[C@H]2[C@@H]([C@H]1C(=O)N[C@H](CC1CCC1)C(=O)C(N)=O)C2(C)C)C(C)(C)C
- Compound recovery [1]: 0.31%
- Compound recovery [2]: metabolite_not_detected

SMILES: CC(C)(C)NC(=O)N[C@H](C(=O)N1C[C@H]2[C@@H]([C@H]1C(=O)NC(CC1CCC1)C(=O)C(N)=O)C2(C)C)C(C)(C)C (stereo partly drawn) [BOCEPREVIR]
- Compound recovery [3]: metabolite_not_detected
- Compound recovery [4]: metabolite_not_detected
- Compound recovery [5]: metabolite_not_detected
- Compound recovery [6]: metabolite_not_detected
- Compound recovery [7]: metabolite_not_detected
- Compound recovery [8]: metabolite_not_detected
- Compound recovery [9]: metabolite_not_detected
- Compound recovery [10]: metabolite_not_detected
- Compound recovery [11]: metabolite_not_detected
- Vmax/Km [12]: 14.67 µL/min

SMILES: CC(C)(C)NC(=O)N[C@H](C(=O)N1C[C@H]2[C@@H]([C@H]1C(=O)N[C@@H](CC1CCC1)[C@@H](O)C(N)=O)C2(C)C)C(C)(C)C
- inhibition (INH) [13]: 82%
